Where two headings read alike, the source gives them in different places.
Key:
[1] = biological target: NR1/NR2B (Homo sapiens (Human), UniProt Q13224); assay: Cell assay: FDSS Ca2+ influx inhibition in HEK293 cells expressing NR1/NR2B;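 also: Fluo-8 Ca2+ signal read on Hamamatsu FDSS 6000 after glutamate, glycine and Ca2+ challenge following 10 min compound preincubation, end/baseline fluorescence ratio compared with MK801 control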
[2] = biological target: NR1/NR2B (Homo sapiens (Human), UniProt Q05586+Q13224); assay: as above; conditions: Ca2+ influx
Sequence of NR1/NR2B (Homo sapiens (Human), UniProt Q05586+Q13224) (Q13224 27-1484, other chains not shown): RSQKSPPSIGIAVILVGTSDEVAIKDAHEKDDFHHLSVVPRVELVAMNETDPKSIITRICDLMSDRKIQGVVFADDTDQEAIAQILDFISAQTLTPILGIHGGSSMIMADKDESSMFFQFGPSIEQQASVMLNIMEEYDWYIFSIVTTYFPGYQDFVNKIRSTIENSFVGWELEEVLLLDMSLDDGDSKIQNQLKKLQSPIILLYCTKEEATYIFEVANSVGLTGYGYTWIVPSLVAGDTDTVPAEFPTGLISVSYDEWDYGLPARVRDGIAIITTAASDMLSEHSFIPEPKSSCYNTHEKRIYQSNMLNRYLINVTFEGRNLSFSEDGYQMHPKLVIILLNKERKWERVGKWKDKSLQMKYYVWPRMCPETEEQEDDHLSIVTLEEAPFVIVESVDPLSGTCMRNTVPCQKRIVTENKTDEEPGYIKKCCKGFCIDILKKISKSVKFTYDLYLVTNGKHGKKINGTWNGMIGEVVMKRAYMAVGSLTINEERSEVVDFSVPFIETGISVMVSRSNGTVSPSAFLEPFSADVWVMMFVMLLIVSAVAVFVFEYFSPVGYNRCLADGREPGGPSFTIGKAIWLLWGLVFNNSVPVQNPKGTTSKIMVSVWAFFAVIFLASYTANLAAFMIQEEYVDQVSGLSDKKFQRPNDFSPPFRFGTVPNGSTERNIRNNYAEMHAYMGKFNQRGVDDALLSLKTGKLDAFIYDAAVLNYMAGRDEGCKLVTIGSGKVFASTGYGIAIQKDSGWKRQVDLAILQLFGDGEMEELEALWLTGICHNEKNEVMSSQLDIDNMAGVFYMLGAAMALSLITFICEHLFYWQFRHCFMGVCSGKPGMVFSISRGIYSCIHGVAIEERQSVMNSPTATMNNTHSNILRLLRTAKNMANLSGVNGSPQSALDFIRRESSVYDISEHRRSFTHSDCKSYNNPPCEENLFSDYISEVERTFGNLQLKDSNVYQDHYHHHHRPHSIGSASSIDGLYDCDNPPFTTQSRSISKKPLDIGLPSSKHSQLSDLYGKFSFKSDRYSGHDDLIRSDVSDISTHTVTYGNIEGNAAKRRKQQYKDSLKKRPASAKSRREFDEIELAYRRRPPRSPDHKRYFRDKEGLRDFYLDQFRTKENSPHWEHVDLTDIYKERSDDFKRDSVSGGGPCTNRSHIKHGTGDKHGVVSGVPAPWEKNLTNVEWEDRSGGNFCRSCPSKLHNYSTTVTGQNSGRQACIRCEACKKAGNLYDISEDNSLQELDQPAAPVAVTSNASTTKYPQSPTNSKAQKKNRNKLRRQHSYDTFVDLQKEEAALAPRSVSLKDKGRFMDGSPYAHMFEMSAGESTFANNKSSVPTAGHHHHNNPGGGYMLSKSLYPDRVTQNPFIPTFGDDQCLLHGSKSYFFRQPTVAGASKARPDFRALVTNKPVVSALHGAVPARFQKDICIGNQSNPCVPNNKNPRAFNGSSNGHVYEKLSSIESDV

[3] = read-out: NR2B NAM IC50, HEK293 cells expressing NR1/NR2B, Ca2+ influx
[4] = Binned Activity, HEK293 cells expressing NR1/NR2B, binned NR2B NAM IC50
[5] = read-out: Binned Activity, HEK293 cells expressing NR1/NR2B, Ca2+ influx, binned NR2B NAM IC50
[6] = NR2B NAM IC50, HEK293 cells expressing NR1/NR2B

Sequence of NR1/NR2B (Homo sapiens (Human), UniProt Q13224) (Q13224 27-1484, other chains not shown): as above

Row | Structure (SMILES) | IC50 [1, 3] [µM] | IC50 [2, 4] [µM] | IC50 [2, 6] [µM] | other results
1 | Cc1cccc(-c2cccc(C(=O)CN3C[C@@H]4C[C@@](O)(Cc5ccccc5)C[C@@H]4C3)c2)c1 [Example 276, 2-((3aR,5r,6aS)-5-benzyl-5-hydroxyhexahydrocyclo-penta[c]pyrrol-2(1H)-yl)-1-(3′-methyl-[1,1′-biphenyl]-3yl)ethanone] | 10 | > 10 |  | 
2 | Cc1cccc(N2C[C@@H]3C[C@@](O)(c4ccccc4C)C[C@@H]3C2)n1 [Example 86, 5-(2-methylphenyl)-2-(6-methylpyridin-2-yl)-octahydrocyclopenta[c] pyrrol-5-ol] | 10 | > 10 |  | 
3 | COc1ccc(C)cc1NC(=O)N1C[C@H]2C[C@@H](c3ccccc3)C[C@H]2C1 [Example 109, N-(2-methoxy-5-methylphenyl)-5-phenyl-octahydrocyclopenta[c] pyrrole-2-carboxamide] | 10 | > 10 |  | 
4 | OC(CN1C[C@@H]2CC(O)(Cc3ccccc3)C[C@@H]2C1)c1ccc(F)cc1 (mixture of isomers) [Example 289, rac-(3aR,5r,6aS)-5-benzyl-2-(2-(4-fluorophenyl)-2-hydroxyethyl)octahydro-cyclopenta[c]pyrrol-5-ol] | 10 |  |  | IC50 [1, 5]: > 10 µM
5 | Cc1ccccc1-c1ccc(C(=O)CN2C[C@@H]3C[C@@](O)(Cc4ccccc4)C[C@@H]3C2)cc1 [Example 260, 2-((3aR,5r,6aS)-5-benzyl-5-hydroxyhexahydrocyclo-penta[c]pyrrol-2(1H)-yl)-1-(2′-methyl-[1,1′-biphenyl]-4-yl)ethanone] | 10 | > 10 |  | 
6 | Oc1ccc([C@H](O)CN2C[C@@H]3C[C@@](O)(Cc4ccccc4)C[C@@H]3C2)nc1 [Example 165, (3aR,5R,6aS)-5-benzyl-2-((R)-2-hydroxy-2-(5-hydroxypyridin-2-yl)ethyl)octahydrocyclo-penta[c]pyrrol-5-ol] | 0.0337 | < 0.1 |  | 
7 | O=C(CN1C[C@@H]2C[C@@](O)(Cc3cccc(F)c3F)C[C@@H]2C1)c1ccc(O)cc1 [Example 249, 2-((3aR,5r,6aS)-5-(2,3-difluorobenzyl)-5-hydroxyhexahydrocyclo-penta[c]pyrrol-2(1H)-yl)-1-(4-hydroxyphenyl)ethanone] | 0.11 | 0.1 to 1 |  | 
8 | O=C(CN1CC2CC(Cc3ccccc3)CC2C1)c1ccc(O)cn1 (centres unmarked) [Example 297, 2-{5-benzyl-octahydrocyclopenta[c]pyrrol-2-yl}-1-(5-hydroxypyridin-2-yl)ethan-1-one] | 0.792 |  |  | IC50 [1, 5]: 0.1 to 1 µM
9 | Cc1ccccc1[C@]1(O)C[C@H]2CN(c3cccc(C(F)(F)F)n3)C[C@H]2C1 [Example 84, 5-(2-methylphenyl)-2-[6-(trifluoromethyl)pyridin-2-yl]-octahydrocyclopenta[c] pyrrol-5-ol] | 10 | > 10 |  | 
10 | Cc1cccc(N2C[C@@H]3C[C@@](O)(c4ccc(F)cc4)C[C@@H]3C2)n1 [Example 87, 5-(4-fluorophenyl)-2-(6-methylpyridin-2-yl)-octahydrocyclopenta[c] pyrrol-5-ol] | 10 | > 10 |  | 
11 | COC(=O)c1ccc(NC(=O)N2C[C@@H]3C[C@@](O)(c4ccccc4)C[C@@H]3C2)cc1 [Example 28, methyl 4-[({5-hydroxy-5-phenyl-octahydrocyclopenta[c]pyrrol-2-yl}carbonyl)amino] benzoate] | 10 | > 10 |  | 
12 | O=C(CN1C[C@@H]2C[C@@](O)(Cc3ccccc3)C[C@@H]2C1)c1ncc(O)cn1 [Example 202, 2-[(3aR,5R,6aS)-5-benzyl-5-hydroxy-octahydrocyclopenta[c]pyrrol-2-yl]-1-(5-hydroxypyrimidin-2-yl)ethan-1-one] | 10 | > 10 |  | 
13 | N#Cc1cccc(NC(=O)N2C[C@@H]3C[C@@](O)(c4ccccc4)C[C@@H]3C2)c1 [Example 26, N-(3-cyanophenyl)-5-hydroxy-5-phenyl-octahydrocyclopenta[c] pyrrole-2-carboxmaide] | 10 | > 10 |  | 
14 | O=C1Cc2cc(C(=O)CN3C[C@@H]4C[C@@](O)(Cc5ccccc5)C[C@@H]4C3)ccc2N1 [Example 147, 5-(2-((3aR,5r,6aS)-5-benzyl-5-hydroxyhexahydrocyclo-penta[c]pyrrol-2(1H)-yl)acetyl)indolin-2-one] | 0.352 | 0.1 to 1 |  | 
15 | O=C(Nc1ccccc1)N1C[C@@H]2C[C@@](O)(Cc3ccccc3)C[C@@H]2C1 [Example 122, (3aR,5r,6aS)-5-benzyl-5-hydroxy-N-phenylhexahydrocyclo-penta[c]pyrrole-2(1H)-carboxamide] | 10 | > 10 |  | 
16 | COc1ccc(NC(=O)N2C[C@@H]3C[C@@](O)(Cc4ccccc4)C[C@@H]3C2)cc1 [Example 126, (3aR,5r,6aS)-5-benzyl-5-hydroxy-N-(4-methoxy-phenyl)hexahydro-cyclopenta[c]pyrrole-2(1H)-carboxamide] | 10 | > 10 |  | 

Row | Structure (SMILES) | IC50 [1, 3] [µM] | IC50 [2, 4] [µM] | IC50 [2, 6] [µM] | other results
17 | Oc1ccc([C@H](O)CN2C[C@@H]3C[C@@](O)(Cc4ccccc4)C[C@@H]3C2)cc1 [Example 143, (3aR,5S,6aS)-5-benzyl-2-((S)-2-hydroxy-2-(4-hydroxyphenyl)ethyl)octa-hydrocyclopenta[c]pyrrol-5-ol] |  |  |  | IC50 [1, 5]: < 0.1 µM
18 | O=C(CN1CC2CC(CCc3ccccc3)CC2C1)c1ccc(O)cc1 (centres unmarked) [Example 323, 1-(4-hydroxyphenyl)-2-(5-phenethyl-hexahydrocyclo-penta[c]pyrrol-2(1H)-yl)ethanone] | 0.426 |  |  | IC50 [1, 5]: 0.1 to 1 µM
19 | O=C(CN1CC2CC(Cc3ccccc3)CC2C1)c1ccc(O)c(F)c1 (centres unmarked) [Example 299, 2-{5-benzyl-octahydrocyclopenta[c]pyrrol-2-yl}-1-(3-fluoro-4-hydroxyphenyl) ethan-1-one] |  |  |  | IC50 ([1]; read-out: Binned Activity): < 0.1 µM; IC50 ([1]; read-out: NR2B NAM IC50): 0.0781 µM
20 | O=C(CN1CC2CC(O)(c3ccccc3)CC2C1)c1ccccc1 (centres unmarked) [Example 57, 2-(5-hydroxy-5-phenylhexahydrocyclo-penta[c]pyrrol-2(1H)-yl)-1-phenylethanone] | 10 |  |  | IC50 [1, 5]: > 10 µM
21 | Cc1cc(F)ccc1C[C@]1(O)C[C@H]2CN(CC(O)c3ccc(O)cc3)C[C@H]2C1 (mixture of isomers) [Example 254, rac-(3aR,5r,6aS)-5-(4-fluoro-2-methylbenzyl)-2-(2-hydroxy-2-(4-hydroxyphenyl)ethyl) octahydrocyclopenta[c] pyrrol-5-ol] |  |  | 0.0425 | 
22 | OC(CN1C[C@@H]2C[C@@](O)(Cc3ccccc3)C[C@@H]2C1)c1cccc(C(F)(F)F)c1 (mixture of isomers) [Example 288, rac-(3aR,5r,6aS)-benzyl-2-(2-hydroxy-2-(3-(trifluoromethyl)phenyl)ethyl)octahydrocyclo-penta[c]pyrrol-5-ol] |  | > 10 | ≥ 10 | 
23 | CC(C(O)c1ccc(O)cc1)N1C[C@@H]2C[C@@](O)(c3ccccc3)C[C@@H]2C1 (mixture of isomers) [Example 91, rac-2-(1-hydroxy-1-(4-hydroxyphenyl)propan-2-yl)-5-phenyloctahydrocyclo-penta[c]pyrrol-5-ol] |  | > 10 | ≥ 10 | 
24 | OC(CN1C[C@@H]2C[C@@](O)(Cc3ccccc3)C[C@@H]2C1)c1ccc2[nH]nnc2c1 (mixture of isomers) [Example 186, rac-(3aR,5R,6aS)-2-[2-(1H-1,2,3-benzotriazol-5-yl)-2-hydroxyethyl]-5-benzyl-octahydrocyclopenta[c] pyrrol-5-ol] |  | 0.1 to 1 | 0.748 | 
25 | CS(=O)(=O)Nc1ccc(C(O)CN2C[C@@H]3C[C@@](O)(Cc4ccccc4)C[C@@H]3C2)cc1 (mixture of isomers) [Example 150, rac-N-(4-(2-((3aR,5r,6aS)-5-benzyl-5-hydroxyhexahydrocyclo-penta[c]pyrrol-2(1H)-yl)-1-hydroxy-ethyl)phenyl)meth-anesulfonamide] |  |  | 0.047 | 
26 | Oc1ccc(C(O)CN2C[C@@H]3C[C@@](O)(Cc4ccc(F)cc4)C[C@@H]3C2)cc1F (mixture of isomers) [Example 171, rac-(3aR,5r,6aS)-2-(2-(3-fluoro-4-hydroxyphenyl)-2-hydroxyethyl)-5-(4-fluorobenzyl)octahydro-cyclopenta[c]pyrrol-5-ol] |  |  | 0.0221 | 
27 | COc1cccc([C@]2(O)C[C@H]3CN(CC(O)c4cccc(C(F)(F)F)c4)C[C@H]3C2)c1 (mixture of isomers) [Example 73, rac-2-{2-hydroxy-2-[3-(trifluoromethyl)phenyl]ethyl}-5-(3-methoxyphenyl)-octahydrocyclopenta[c] pyrrol-5-ol] |  | > 10 | ≥ 10 | 
28 | Oc1ccc(C(O)CN2C[C@@H]3C[C@@](O)(Cc4ccc(C(F)(F)F)cc4)C[C@@H]3C2)cc1 (mixture of isomers) [Example 224, rac-(3aR,5R,6aS)-2-[2-hydroxy-2-(4-hydroxyphenyl)ethyl]-5-{[4-(trifluoromethyl)phenyl]methyl}-octahydrocyclopenta[c] pyrrol-5-ol] |  |  | 0.0848 | 
29 | Oc1cnc(C(O)CN2C[C@@H]3C[C@@](O)(Cc4ccccc4)C[C@@H]3C2)cn1 (mixture of isomers) [Example 188, rac-(3aR,5r,6aS)-5-benzyl-2-(2-hydroxy-2-(5-hydroxypyrazin-2-yl)ethyl)octahydrocyclo-penta[c]pyrrol-5-ol] |  | > 10 | ≥ 10 | 
30 | CC(C)(O)c1ccc(C(O)CN2C[C@@H]3C[C@@](O)(Cc4ccccc4)C[C@@H]3C2)cc1 (mixture of isomers) [Example 139, rac-(3aR,5r,6aS)-5-benzyl-2-(2-hydroxy-2-(4-(2-hydroxypropan-2-yl)phenyl)ethyl)octahydro-cyclopenta[c]pyrrol-5-ol] |  | > 10 | ≥ 10 | 
31 | Cc1ccccc1[C@]1(O)C[C@H]2CN(C(=O)Nc3cccc(C#N)c3)C[C@H]2C1 [Example 31, N-(3-cyanophenyl)-5-hydroxy-5-(2-methylphenyl)-octahydrocyclopenta[c] pyrrole-2-carboxamide] |  | > 10 |  | 

Reference: patent publication US10052306B2 (LUC THERAPEUTICS, INC., priority 2013, dated 2018)
